The source of these data is patent publication US20090018150A1, “5-Ht2b Receptor Antagonists” (ASTERAND UK LIMITED, priority 2003, published 2009).

Where only a bound is given, the exact number is not on record here.

Assay [1] concerns the target T1, human cloned 5-HT2B receptors (Homo sapiens, UniProt P41595).
T1 construct: expressed in transfected cells; host or cells: CHO-K1
Put plainly: Human cloned 5-HT2B receptor binding assay. The conditions noted are these: [3H]LSD (1 nM) displacement, membranes of CHO-K1 cells expressing cloned 5-HT2B receptor; read-out: 5-HT2B pKi (converted). The method, boiled down: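 Membranes from CHO-K1 cells expressing cloned receptor incubated 30 min at 37 °C with 1 nM [3H]LSD, 10 μM pargyline and compound (1×10^−10 to 1×10^−4 M) in 50 mM Tris-HCl pH 7.4, 4 mM CaCl2. Nonspecific binding with 100 μM 5-HT; filtration and scintillation counting, IC50 converted to Ki using Kd from saturation binding.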

Assay [2] concerns the target T2, cloned human 5-HT2A receptor (Homo sapiens, UniProt P28223).
T2 construct: purchased Euroscreen; host or cells: CHO-K1
Put plainly: Human 5-HT2A receptor binding assay. To be noted: [3H]ketanserin (1 nM) displacement, CHO-K1 cell membranes; read-out: 5-HT2A pKi (converted). An outline of the steps: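 Competition binding with 15 μg membranes from CHO-K1 cells expressing cloned human receptor, 1 nM [3H]ketanserin, 10 μM pargyline, 50 mM Tris pH 7.4, compounds 1×10^−10 to 1×10^−4 M; 100 μM mianserin defined nonspecific binding. Incubated 15 min at 37 °C, filtered, counted; IC50 converted to Ki using saturation-derived Kd.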

Assay [3] has as its target T3, cloned human 5-HT2C receptor (Homo sapiens, UniProt P28335).
T3 construct: purchased Euroscreen; host or cells: CHO-K1
T3 sequence (P28335 33-458): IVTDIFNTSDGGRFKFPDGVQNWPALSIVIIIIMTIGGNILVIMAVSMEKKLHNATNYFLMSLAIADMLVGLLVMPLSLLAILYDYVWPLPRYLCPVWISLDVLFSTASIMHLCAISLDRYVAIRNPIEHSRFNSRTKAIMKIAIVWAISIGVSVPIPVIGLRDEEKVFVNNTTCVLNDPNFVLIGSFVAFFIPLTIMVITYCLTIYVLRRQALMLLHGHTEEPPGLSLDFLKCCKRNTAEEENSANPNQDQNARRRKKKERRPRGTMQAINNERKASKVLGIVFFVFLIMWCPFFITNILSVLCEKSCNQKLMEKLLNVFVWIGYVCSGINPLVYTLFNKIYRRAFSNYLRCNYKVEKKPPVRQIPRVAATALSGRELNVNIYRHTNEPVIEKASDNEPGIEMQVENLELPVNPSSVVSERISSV
Put plainly: Human 5-HT2C receptor binding assay. The conditions noted are these: [3H]mesulergine (1 nM) displacement, CHO-K1 cell membranes; read-out: 5-HT2C pKi (converted). An outline of the steps: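 CHO-K1 cell membranes expressing the receptor (6 μg) competed against [^3H]mesulergine (1 nM) in 50 mM Tris-HCl pH 7.7, 0.1% ascorbic acid, 10 μM pargyline for 30 min at 37° C; compounds 1×10^−10 to 1×10^−4M. Nonspecific binding with 100 μM mianserin; filtration and scintillation counting. IC50 converted to Ki using saturation-derived Kd.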

T1 sequence (P41595 whole entry): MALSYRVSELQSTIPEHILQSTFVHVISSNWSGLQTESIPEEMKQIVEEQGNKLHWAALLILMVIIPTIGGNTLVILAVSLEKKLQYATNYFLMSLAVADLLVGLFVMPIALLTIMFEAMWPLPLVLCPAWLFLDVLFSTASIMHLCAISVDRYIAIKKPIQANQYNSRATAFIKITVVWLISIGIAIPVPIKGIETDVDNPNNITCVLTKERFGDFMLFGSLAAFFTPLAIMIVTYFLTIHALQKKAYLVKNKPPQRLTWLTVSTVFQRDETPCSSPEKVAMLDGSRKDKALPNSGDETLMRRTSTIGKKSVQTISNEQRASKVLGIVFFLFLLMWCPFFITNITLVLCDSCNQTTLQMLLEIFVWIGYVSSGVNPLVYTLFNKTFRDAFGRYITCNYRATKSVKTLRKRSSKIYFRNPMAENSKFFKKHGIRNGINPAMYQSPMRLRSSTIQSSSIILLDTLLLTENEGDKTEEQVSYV
T2 sequence (P28223 whole entry): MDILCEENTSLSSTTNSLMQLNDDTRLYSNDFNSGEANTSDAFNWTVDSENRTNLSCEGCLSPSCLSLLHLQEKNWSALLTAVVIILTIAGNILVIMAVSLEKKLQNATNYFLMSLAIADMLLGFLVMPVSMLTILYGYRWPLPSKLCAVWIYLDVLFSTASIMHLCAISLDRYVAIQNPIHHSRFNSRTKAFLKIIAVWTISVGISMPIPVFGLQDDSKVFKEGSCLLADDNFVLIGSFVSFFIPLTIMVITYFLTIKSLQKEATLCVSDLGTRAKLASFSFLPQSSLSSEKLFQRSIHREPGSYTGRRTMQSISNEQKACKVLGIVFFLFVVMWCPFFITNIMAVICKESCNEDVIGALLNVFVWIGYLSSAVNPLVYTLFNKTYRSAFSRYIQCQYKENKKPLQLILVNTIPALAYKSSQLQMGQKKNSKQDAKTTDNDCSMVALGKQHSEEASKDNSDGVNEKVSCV

For the compound `CC(=O)Nc1ncc(-c2sc3ccccc3c2C)[nH]1` [Compound 103O, N-[4-(3-Methyl-benzo[b]thiophen-2-yl)-1H-imidazol-2-yl]-acetamide], the Ki in assay [1] is under 1000 nM; in assay [2], over 10000 nM; in assay [3], over 10000 nM.

With `CC(=O)Nc1nc(-c2c(O)ccc3ccccc23)c[nH]1` [Compound 103Q, N-[4-(2-hydroxy-naphthalen-1-yl)-1H-imidazol-2-yl]-acetamide], the Ki in assay [1] was under 1000 nM; in assay [2], over 3160 nM; in assay [3] it was over 1000 nM.

Consider `CCOc1ccc2ccccc2c1-c1c[nH]c(N)n1` [Compound 104A, 4-(2-Ethoxy-naphthalen-1-yl)-1H-imidazol-2-ylamine], for which the Ki in assay [1] is under 1000 nM; in assay [2], over 1000 nM; in assay [3], over 100 nM.

In the case of `COc1ccc(-c2c[nH]c(N)n2)c2ccccc12` [Compound 104B, 4-(4-Methoxy-naphthalen-1-yl)-1H-imidazol-2-ylamine], the Ki is under 100 nM in assay [1], over 3160 nM in assay [2] and over 3160 nM in assay [3].

Regarding `COc1c(-c2cnc(N)[nH]2)ccc2ccccc12` [Compound 104E, 4-(1-Methoxy-naphthalen-2-yl)-1H-imidazol-2-ylamine], the Ki in assay [1] was under 100 nM; in assay [2], over 1000 nM; in assay [3], over 100 nM.

Turning to `Nc1nc(-c2ccc(F)c3ccccc23)c[nH]1` [Compound 104F, 4-(4-Fluoro-naphthalen-1-yl)-1H-imidazol-2-ylamine], the Ki in assay [1] is under 100 nM; in assay [2], over 1000 nM; in assay [3] it was over 1000 nM.

Regarding `Nc1nc(-c2cccc3ccc(Br)cc23)c[nH]1` [Compound 104G, 4-(7-Bromo-naphthalen-1-yl)-1H-imidazol-2-ylamine], the Ki is under 100 nM in assay [1], over 316 nM in assay [2] and over 316 nM in assay [3].

For the compound `Nc1nc(-c2cccc3c(Br)cccc23)c[nH]1` [Compound 104H, 4-(5-Bromo-naphthalen-1-yl)-1H-imidazol-2-ylamine], the Ki was under 100 nM in assay [1], over 316 nM in assay [2] and over 100 nM in assay [3].

Turning to `Cc1[nH]c(N)nc1-c1cccc2ccccc12` [Compound 104I, 5-Methyl-4-naphthalen-1-yl-1H-imidazol-2-ylamine], the Ki in assay [1] is under 100 nM; in assay [2], over 3160 nM; in assay [3] it was over 1000 nM.

With `CC(C)c1[nH]c(N)nc1-c1cccc2ccccc12` [Compound 104K, 5-Isopropyl-4-naphthalen-1-yl-1H-imidazol-2-ylamine], the Ki in assay [1] is under 100 nM; in assay [2], over 100 nM; in assay [3], over 316 nM.

For `Cc1c(-c2cnc(N)[nH]2)sc2ccccc12` [Compound 104O, 4-(3-Methyl-benzo[b]thiophen-2-yl)-1H-imidazol-2-ylamine], the Ki in assay [1] is under 316 nM; in assay [2] it was over 10000 nM; in assay [3] it was over 316 nM.

Take `Nc1nc(-c2ccc(-c3ccccc3)cc2)c[nH]1` [Compound 104P, 4-Biphenyl-4-yl-1H-imidazol-2-ylamine]: the Ki in assay [1] is under 316 nM; in assay [2] it was over 100 nM; in assay [3], over 316 nM.

As for `Nc1nc(-c2cccc(-c3ccccc3)c2)c[nH]1` [Compound 108, 4-biphenyl-3-yl-1H-imidazol-2-ylamine], the Ki is under 100 nM in assay [1], over 316 nM in assay [2] and over 100 nM in assay [3].

Take `Nc1ncc(-c2cccc(-c3ccccc3)c2)o1` [Compound 209A, 5-Biphenyl-3-yl-oxazol-2-ylamine]: the Ki in assay [1] is under 316 nM; in assay [2] it was over 10000 nM; in assay [3] it was over 10000 nM.

For the compound `Cc1cccc(-c2cccc(-c3cnc(N)o3)c2)c1` [Compound 209B, 5-(3′-Methyl-biphenyl-3-yl)-oxazol-2-ylamine], the Ki in assay [1] is under 316 nM; in assay [2] it was over 10000 nM; in assay [3], over 10000 nM.

Regarding `Nc1ncc(-c2cccc(-c3cccc(O)c3)c2)o1` [Compound 209C, 3′-(2-Amino-oxazol-5-yl)-biphenyl-3-ol], the Ki in assay [1] was under 1000 nM; in assay [2] it was over 10000 nM; in assay [3], over 10000 nM.

Consider `Nc1ncc(-c2cccc(-c3ccccc3Cl)c2)o1` [Compound 209E, 5-(2′-Chloro-biphenyl-3-yl)-oxazol-2-ylamine], for which the Ki in assay [1] is under 316 nM; in assay [2] it was over 1000 nM; in assay [3] it was over 10000 nM.

For the compound `COc1ccccc1-c1cccc(-c2cnc(N)o2)c1` [Compound 209G, 5-(2′-Methoxy-biphenyl-3-yl)-oxazol-2-ylamine trifluoroacetic acid], the Ki in assay [1] was under 100 nM; in assay [2] it was over 1000 nM; in assay [3] it was over 1000 nM.

As for `Nc1ncc(-c2cccc(-c3ccc(F)cc3)c2)o1` [Compound 209J, 5-(4′-Fluoro-biphenyl-3-yl)-oxazol-2-ylamine, trifluoroacetic acid], the Ki in assay [1] is under 1000 nM; in assay [2] it was over 1000 nM; in assay [3], over 1000 nM.

Regarding `Cc1cc(C)cc(-c2cccc(-c3cnc(N)o3)c2)c1` [Compound 209K, 5-(3′,5′-Dimethyl-biphenyl-3-yl)-oxazol-2-ylamine, trifluoroacetic acid], the Ki in assay [1] was under 1000 nM; in assay [2] it was over 1000 nM; in assay [3], over 1000 nM.

Take `Cc1oc(N)nc1-c1cccc(-c2ccccc2)c1` [Compound 218A, 4-Biphenyl-3-yl-5-methyl-oxazol-2-ylamine, trifluoroacetic acid]: the Ki in assay [1] was under 1000 nM; in assay [2] it was over 1000 nM; in assay [3] it was over 1000 nM.

Take `COc1ccccc1-c1cccc(-c2nc(N)oc2C)c1` [Compound 218C, 4-(2′-methoxy-biphenyl-3-yl)-5-methyl-oxazol-2-ylamine, trifluoroacetic acid]: the values for the Ki in assay [1], in assay [2] and in assay [3] were under 316 nM, over 1000 nM and over 1000 nM, respectively.

Consider `Cc1nc(N)oc1-c1cccc(-c2ccccc2)c1` [Compound 219A, 5-biphenyl-3-yl-4-methyl-oxazol-2-ylamine, trifluoroacetic acid], for which the values for the Ki in assay [1], in assay [2] and in assay [3] were under 316 nM, over 1000 nM and over 1000 nM, respectively.

As for `COc1ccc(-c2ccccc2)cc1-c1cnc(N)o1` [Compound 224A, 5-(4-methoxy-biphenyl-3-yl)-oxazol-2-ylamine, trifluoroacetic acid], the Ki in assay [1] is under 1000 nM; in assay [2] it was over 1000 nM; in assay [3], over 1000 nM.

Turning to `COc1ccccc1-c1ccc(OC)c(-c2cnc(N)o2)c1` [Compound 224B, 5-(4,2′-dimethoxy-biphenyl-3-yl)-oxazol-2-ylamine, trifluoroacetic acid], the figures for the Ki in assay [1], in assay [2] and in assay [3] were under 316 nM, over 1000 nM and over 1000 nM, respectively.

Consider `COc1ccc(-c2cccc(C)c2)cc1-c1cnc(N)o1` [Compound 224C, 5-(4-Methoxy-3′-methyl-biphenyl-3-yl)-oxazol-2-ylamine, trifluoroacetic acid], for which the Ki in assay [1] is under 1000 nM; in assay [2], over 1000 nM; in assay [3], over 1000 nM.

Consider `Cn1nc(N)nc1Nc1cccc(-c2ccccc2)c1` [Compound 406A, N^5-biphenyl-3-yl-1-methyl-1H-[1,2,4]triazole-3,5-diamine], for which the values for the Ki in assay [1], in assay [2] and in assay [3] were under 316 nM, over 1000 nM and over 1000 nM, respectively.

As for `COc1ccccc1-c1cccc(Nc2nc(N)nn2C)c1` [Compound 406B, N^5-(2′-methoxy-biphenyl-3-yl)-1-methyl-1H-[1,2,4]triazole-3,5-diamine], the Ki in assay [1] was under 316 nM; in assay [2], over 1000 nM; in assay [3], over 1000 nM.

For the compound `Cc1cccc(-c2ccc(Nc3nc(N)nn3C)cc2)c1` [Compound 410C, 1-methyl-N^5-(3′-methyl-biphenyl-4-yl)-1H-[1,2,4]triazole-3,5-diamine trifluoroacetic acid], the Ki in assay [1] is under 1000 nM; in assay [2], over 1000 nM; in assay [3], over 1000 nM.

Take `Cn1nc(Nc2ccc(-c3ccccc3)cc2)nc1N` [Compound 411A, N^3-biphenyl-4-yl-1-methyl-1H-[1,2,4]triazole-3,5-diamine trifluoroacetic acid]: the results for the Ki in assay [1], in assay [2] and in assay [3] were under 1000 nM, over 1000 nM and over 1000 nM, respectively.
